According to ChEMBL document CHEMBL1201862, “PubChem BioAssay data set” (2004):
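Exposure lasted 48 hours, with cells grown in 96-well plates and compounds tested at five concentrations. GI50 = concentration required for 50% inhibition of growth.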 Activity calls are given as the source filed them. Rule as the data show it: active = GI50 up to about 1.1 µM and inactive = higher.

Experiments:
Test in all cases: NCI-60 cell line screen, 48 h
[1] = system: SNB-19
[2] = system: A498
[3] = system: SK-MEL-5
[4] = system: MOLT-4
[5] = system: NCI-H23
[6] = system: OVCAR-4
[7] = system: K562
[8] = system: SK-OV-3
[9] = system: EKVX
[10] = system: Malme-3M
[11] = system: ACHN
[12] = system: 786-0
[13] = system: UO-31
[14] = system: RXF 393
[15] = system: COLO 205
[16] = system: TK-10

SMILES	GI50 [1]	GI50 [2]	GI50 [3]	GI50 [4]	GI50 [5]	GI50 [6]	GI50 [7]	GI50 [8]	GI50 [9]	GI50 [10]	GI50 [11]	GI50 [12]	GI50 [13]	GI50 [14]	GI50 [15]	GI50 [16]
COc1cc2c(c(OC)c1O)-c1ccc(SC)c(=O)cc1C(NC(C)=O)CC2 (stereo unspecified)	0.019 µM (active)	0.195 µM (active)	< 0.01 µM (active)	< 0.0122 µM (active)	0.0167 µM (active)	> 40.6 µM (inactive)	< 0.01 µM (active)	0.215 µM (active)	39.7 µM (inactive)	< 0.01 µM (active)	0.557 µM (active)	0.0545 µM (active)	5.96 µM (inactive)	0.0171 µM (active)	< 0.01 µM (active)	2.29 µM (inactive)
Cc1ccc(-c2cc(-c3ccco3)c(C#N)c(O)n2)cc1	> 100 µM (inactive)	> 100 µM (inactive)	> 100 µM (inactive)	> 100 µM (inactive)	> 100 µM (inactive)	45.1 µM (inactive)	> 100 µM (inactive)	29.4 µM (inactive)	> 100 µM (inactive)	> 100 µM (inactive)	> 100 µM (inactive)	> 100 µM (inactive)	> 100 µM (inactive)	95.1 µM (inactive)	> 100 µM (inactive)	> 100 µM (inactive)
Nc1c(-c2ccc(Cl)cc2Cl)[n+]([O-])c2ccccc2[n+]1[O-]	> 100 µM (inactive)	> 100 µM (inactive)	> 100 µM (inactive)	> 100 µM (inactive)	> 100 µM (inactive)	> 100 µM (inactive)	> 100 µM (inactive)	> 100 µM (inactive)	> 100 µM (inactive)	> 100 µM (inactive)	> 100 µM (inactive)	> 100 µM (inactive)	> 100 µM (inactive)		> 100 µM (inactive)	> 100 µM (inactive)
FC(F)(F)c1cccc(/C=N/C23CC4CC(CC(C4)C2)C3)c1	> 100 µM (inactive)	> 100 µM (inactive)	> 100 µM (inactive)	> 100 µM (inactive)	> 100 µM (inactive)	> 100 µM (inactive)	> 100 µM (inactive)	> 100 µM (inactive)	> 100 µM (inactive)	> 100 µM (inactive)	> 100 µM (inactive)	> 100 µM (inactive)	> 100 µM (inactive)	> 100 µM (inactive)	> 100 µM (inactive)	> 100 µM (inactive)
O=C(O)[C@@H](NS(=O)(=O)c1ccc2ccccc2c1)c1ccccc1	> 100 µM (inactive)	> 100 µM (inactive)		> 100 µM (inactive)	> 100 µM (inactive)	> 100 µM (inactive)	> 100 µM (inactive)	> 100 µM (inactive)		> 100 µM (inactive)	> 100 µM (inactive)	> 100 µM (inactive)	> 100 µM (inactive)	> 100 µM (inactive)	> 100 µM (inactive)	
O=C1/C(=C/c2ccc3c(c2)OCO3)SC2C=Nc3ccccc3N12 (stereo unspecified)	> 100 µM (inactive)	> 100 µM (inactive)	> 100 µM (inactive)	> 100 µM (inactive)	> 100 µM (inactive)	63.4 µM (inactive)			> 100 µM (inactive)	> 100 µM (inactive)	> 100 µM (inactive)	> 100 µM (inactive)	> 100 µM (inactive)	> 100 µM (inactive)	> 100 µM (inactive)	> 100 µM (inactive)
CN1CCC23c4c5ccc(O)c4OC2C(=NN=C2CCC4(O)C6Cc7ccc(O)c8c7C4(CCN6C)C2O8)CCC3(O)C1C5 (stereo unspecified)	> 100 µM (inactive)	> 100 µM (inactive)	> 100 µM (inactive)	> 100 µM (inactive)	> 100 µM (inactive)	> 100 µM (inactive)	> 100 µM (inactive)	> 100 µM (inactive)	> 100 µM (inactive)	> 100 µM (inactive)	> 100 µM (inactive)	> 100 µM (inactive)	> 100 µM (inactive)		> 100 µM (inactive)	> 100 µM (inactive)
Cc1ccc(S(=O)(=O)c2c(N)n(CCN(C)C)c3nc4ccccc4nc23)cc1	> 100 µM (inactive)		> 100 µM (inactive)	> 100 µM (inactive)	> 100 µM (inactive)	> 100 µM (inactive)	> 100 µM (inactive)	> 100 µM (inactive)	> 100 µM (inactive)	> 100 µM (inactive)	> 100 µM (inactive)	> 100 µM (inactive)	> 100 µM (inactive)		> 100 µM (inactive)	99.8 µM (inactive)
COC(=O)C(CCC#N)(CCC#N)C(=O)OC	> 100 µM (inactive)		> 100 µM (inactive)	> 100 µM (inactive)	> 100 µM (inactive)		> 100 µM (inactive)	> 100 µM (inactive)	> 100 µM (inactive)	> 100 µM (inactive)	> 100 µM (inactive)	> 100 µM (inactive)	> 100 µM (inactive)		> 100 µM (inactive)	
